Measurements reported in patent US20030207811A1, “Method of treating retinopathy of prematurity using somatostatin analogs” (priority 2002, published 2003).
“Also recorded” adds a separate entry of the source. Bridge positions count the residues as written; N and C are the ends. Square brackets hold non-standard residues; d marks the D form. Peptide text beside a SMILES is read from it.

Key:
[1] = molecular target: T1, SSTR2 (Homo sapiens, UniProt P30874); settings: agonist analog; cited from earlier work
[2] = system: pituitary growth hormone (GH) mRNA; test: Pituitary growth hormone mRNA expression by RT-PCR; assay type: in vivo, C57BL6 mice
Method: RNA was extracted using TRIzol reagent (Life Technologies, Rockville, Md., U.S.A.) as described by the manufacturer and reverse transcriptase polymerase chain reaction (RT-PCR) was performed. Ten μg of RNA and 2 μM oligo(dT) 16 (total volume 22 μl) were heated at 68° C. for 2 min and cooled on ice. […] The mixture was incubated at 42° C. for 1 hour, then 99° C. for 5 min. The resultant cDNA was diluted with 100 μl of water and stored at -20° C. until PCR was performed. […] The mixture was incubated for 4 min at 94° C., followed by 28 cycles of 45 s at 94° C., 45 s at 58° C., and 45 s at 72° C., followed by 7 min at 72° C., in a PCR apparatus (model 2400, Perkin Elmer). To verify equal amounts of RNA were used in the PCR reaction and to verify uniform amplification process, β-actin mRNA was also amplified from the sample as an internal control. […] A 100 bp DNA ladder was used as a size marker. The number of cycles versus intensity of the PCR band was evaluated to determine the optimum number of cycles to be in the linear range. […] Retinopathy scores were evaluated by the Kruskal-Wallis test for the overall group and by the Mann-Whitney test to determine differences between groups. Animals weights and GH expression were evaluated using Student's t-test. Statistical significance was determined at the P<0.05 level.

[3] = system: oxygen induced retinopathy; test: Oxygen induced retinopathy in neonatal mice, retinal scoring of fluorescein perfused whole mounts; assay type: in vivo, C57BL6 mice; settings: for retinal neovascularization: mouse model of oxygen induced retinopathy; for median total retinopathy score / median total retinopathy score [median(25th, 75th quartile)]: oxygen reared; for median total retinopathy score [median(25th, 75th quartile)]: octreotide 20 μg kg^−1 bid s.c. P12-P16
Method: (§1) This protocol was approved by the Georgetown University Animal Care and Use committee and adhered to the Association for Research in Vision and Ophthalmology Statement for the Use of Animals in Ophthalmic and Vision Research. C57BL6 mice were obtained from Taconic Laboratories (Germantown, N.Y.). Neonatal mice were placed in an infant incubator with their nursing mother with 75% oxygen at P7 and remained in oxygen until removal to room air at P12 (Smith et al., 1994 Invest. Ophthalmol. Vis. Sci. 35, 101-11). Oxygen was delivered at 75±2%, measured with an oxygen analyser (Hudson Ventonics, Temecula, Calif., U.S.A.), and checked at least twice daily. Individual litters were either oxygen or room air reared. Within litters, differential treatment was performed including no treatment, octreotide, Woc4D, and sham injection. Animals were treated with injections for 5 days from P12 to P16. Animal killing was performed using a lethal dose of pentobarbital (120 mg/kg i.p.). Animals were perfused with fluorescein conjugated dextran as previously described (D'Amato et al., 1993, Microvasc. Res. 46, 135-42) and retinopathy was assessed by a retinal scoring system shown in Table I.
It was received and used as the acetate salt. Octreotide acetate was purchased from Polypeptide Laboratories. […] The analogs were dissolved in 33 mM acetate buffer (pH 5) with 135 mM NaCl. Sham injections were performed with that vehicle.
Retinopathy scores were evaluated by the Kruskal-Wallis test for the overall group and by the Mann-Whitney test to determine differences between groups. Animals weights and GH expression were evaluated using Student's t-test. Statistical significance was determined at the P<0.05 level.

[4] = Growth as measured by animal weight; assay type: in vivo, C57BL6 mice; settings: Woc4D or octreotide treatment P12-P16
Method: as §1, with “Animal killing was performed using a lethal dose of pentobarbital (120 mg/kg i.p.).” left out, “I. […]” for “I.”
Retinopathy scores were evaluated by the Kruskal-Wallis test for the overall group and by the Mann-Whitney test to determine differences between groups. Animals weights and GH expression were evaluated using Student's t-test. Statistical significance was determined at the P<0.05 level. […]

[5] = molecular target: T1, SSTR2; settings: cited from earlier work

T1 sequence (P30874 whole entry, species assumed): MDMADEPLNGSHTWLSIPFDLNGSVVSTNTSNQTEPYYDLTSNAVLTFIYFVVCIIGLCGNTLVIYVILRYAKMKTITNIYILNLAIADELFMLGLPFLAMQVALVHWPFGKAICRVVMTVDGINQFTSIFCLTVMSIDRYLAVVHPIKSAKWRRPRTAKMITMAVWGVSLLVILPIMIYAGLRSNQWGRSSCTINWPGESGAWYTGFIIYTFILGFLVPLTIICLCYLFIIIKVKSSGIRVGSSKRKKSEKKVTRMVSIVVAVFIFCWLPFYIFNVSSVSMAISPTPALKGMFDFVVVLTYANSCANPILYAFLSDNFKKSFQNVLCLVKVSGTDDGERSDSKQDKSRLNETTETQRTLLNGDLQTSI

C[C@@H](O)[C@H](NC(=O)[C@@H]1CSSC[C@H](NC(=O)[C@@H](Cc2ccc(O)cc2)NC(=O)[C@@H](Cc2ccc(O)cc2)NC(=O)[C@@H](Cc2ccc(O)cc2)NC(=O)[C@H](N)Cc2ccc(O)cc2)C(=O)N[C@@H](Cc2ccccc2)C(=O)N[C@H](Cc2c[nH]c3ccccc23)C(=O)N[C@@H](CCCCN)C(=O)N[C@@H]([C@@H](C)O)C(=O)N1)C(N)=O [Woc4D, Dtyr-Dtyr-Dtyr-Dtyr-cyclo(Cys-Phe-DTrp-Lys-Thr-Cys)-Thr-NH2] (H-[dY][dY][dY][dY]CF[dW]KTCT-NH2; disulfide 5-10; N-terminus assumed)
affinity of interaction with SSTR2 [1]: high affinity
oxygen stimulated GH mRNA ([2]; oxygen + Woc4D 50 μg kg^−1 day^−1 P12-P16): markedly reduced
Blood vessel growth subscore, median ([3]; Oxygen + Woc4D 50): 0
Blood vessel tortuosity subscore, median ([3]; Oxygen + Woc4D 50): 1
Hemorrhage subscore, median ([3]; Oxygen + Woc4D 50): 1
Blood vessel growth subscore, median (25th, 75th quartile) ([3]; Room air + Woc4D 50): 0 (0, 0)
Blood vessel tortuosity subscore, median (25th, 75th quartile) ([3]; Room air + Woc4D 50): 0 (0, 0)
Blood vessel tufts subscore, median (25th, 75th quartile) ([3]; Room air + Woc4D 50): 0 (0, 0)
Central vasoconstriction subscore, median (25th, 75th quartile) ([3]; Room air + Woc4D 50): 0 (0, 0)
Extra retinal neovascularization subscore, median (25th, 75th quartile) ([3]; Room air + Woc4D 50): 0 (0, 0)
Hemorrhage subscore, median (25th, 75th quartile) ([3]; Room air + Woc4D 50): 0 (0, 0)
retinal neovascularization [3]: inhibited retinal neovascularization in an equally effective manner
retinal vascular pathology in retinal whole mount (FIG. 3) ([3]; oxygen exposed, Woc4D treated animal): less retinal vascular pathology
median total retinopathy score ([3]; Woc4D 20 μg kg^−1 day^−1 P12-P16): 6(3,7)
growth as measured by animal weight [4]: unaffected

C[C@@H](O)[C@@H]1NC(=O)[C@H](CCCCN)NC(=O)[C@@H](Cc2c[nH]c3ccccc23)NC(=O)[C@H](Cc2ccccc2)NC(=O)[C@@H](NC(=O)[C@H](N)Cc2ccccc2)CSSC[C@@H](C(=O)N[C@H](CO)[C@@H](C)O)NC1=O [octreotide, D-Phe-Cys-Phe-D-Trp-Lys-Thr-Cys Thr(ol)]
receptor selectivity of stimulation [5]: effective in stimulating SSTR2 to the virtual exclusion of the other receptors
oxygen stimulated GH mRNA ([2]; oxygen + octreotide 20 μg kg^−1 bid P12-P16): markedly reduced
Blood vessel growth subscore, median ([3]; Oxygen + oct 20 bid): 0
Blood vessel tufts subscore, median ([3]; Oxygen + oct 20 bid): decreased blood vessel tufts; also recorded: improvement
Central vasoconstriction subscore, median ([3]; Oxygen + oct 20 bid): 1
Extra retinal neovascularization subscore, median ([3]; Oxygen + oct 20 bid): decreased extra-retinal neovascularization; also recorded: improvement
Blood vessel growth subscore, median (25th, 75th quartile) ([3]; Room air + oct 20 bid): 0 (0, 0)
Blood vessel tortuosity subscore, median (25th, 75th quartile) ([3]; Room air + oct 20 bid): 0 (0, 0)
Blood vessel tufts subscore, median (25th, 75th quartile) ([3]; Room air + oct 20 bid): 0 (0, 0)
Central vasoconstriction subscore, median (25th, 75th quartile) ([3]; Room air + oct 20 bid): 0 (0, 0)
Extra retinal neovascularization subscore, median (25th, 75th quartile) ([3]; Room air + oct 20 bid): 0 (0, 0)
Hemorrhage subscore, median (25th, 75th quartile) ([3]; Room air + oct 20 bid): 0 (0, 0)
retinal neovascularization [3]: inhibited retinal neovascularization in an equally effective manner
median total retinopathy score ([3]; octreotide 10 μg kg^−1 bid P12-P16): 6(3,7)
median total retinopathy score [median(25th, 75th quartile)] [3]: significant improvement
median total retinopathy score [median(25th, 75th quartile)] ([3]; listed as octreoride): 3.5(2.9, 4.3)
growth as measured by animal weight [4]: unaffected
